Test results reported in ChEMBL document CHEMBL1201862, “PubChem BioAssay data set” (2004).
The source made the active and inactive calls.

Key:
Estrogen receptor = target: T1, Estrogen receptor (Homo sapiens, UniProt P03372); experiment: blockers of SRC-3 recruitment to ERα – biochemical, ELISA, streptavidin-HRP readout, orthogonal assay, confirmation (AID 1079)
T1 sequence (P03372 whole entry): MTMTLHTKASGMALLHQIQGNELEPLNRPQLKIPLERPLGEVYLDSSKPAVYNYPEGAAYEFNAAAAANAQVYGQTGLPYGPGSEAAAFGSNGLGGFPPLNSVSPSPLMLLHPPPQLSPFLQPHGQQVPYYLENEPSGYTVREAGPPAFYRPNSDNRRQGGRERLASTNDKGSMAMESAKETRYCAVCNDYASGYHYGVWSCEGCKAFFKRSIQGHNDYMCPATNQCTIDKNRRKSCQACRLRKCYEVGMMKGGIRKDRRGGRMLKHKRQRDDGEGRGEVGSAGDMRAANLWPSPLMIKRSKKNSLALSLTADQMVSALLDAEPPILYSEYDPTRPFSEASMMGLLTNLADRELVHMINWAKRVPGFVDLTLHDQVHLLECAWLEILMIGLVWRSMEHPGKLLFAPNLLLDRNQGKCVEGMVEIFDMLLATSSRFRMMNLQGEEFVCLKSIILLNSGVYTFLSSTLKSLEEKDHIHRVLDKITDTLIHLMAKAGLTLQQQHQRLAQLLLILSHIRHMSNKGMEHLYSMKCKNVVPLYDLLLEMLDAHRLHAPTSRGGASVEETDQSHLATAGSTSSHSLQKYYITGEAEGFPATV

[1] = Trypanosoma cruzi growth suppression in host cells – NIH3T3 host cells, beta-gal luminescence, confirmation (AID 2044); format: functional, cell-based;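 further: intracellular parasites grown in NIH/3T3 mouse fibroblasts as host cells; luminescent beta-galactosidase reporter signal from transgenic T. cruzi replicating inside host cells; inhibitors lower the luminescence signal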
[2] = target: T2, Microphthalmia-associated transcription factor (Homo sapiens, UniProt O75030); experiment: reducers of TRPM1 reporter luminescence, concentration series – cell-based, SK-MEL-5, cherry-picked, set 3, MITF inhibitor project, dose response (AID 493073); format: functional;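 further: SK-MEL-5 melanoma cells with luciferase driven by the MITF target TRPM1 promoter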
T2 sequence (O75030 whole entry): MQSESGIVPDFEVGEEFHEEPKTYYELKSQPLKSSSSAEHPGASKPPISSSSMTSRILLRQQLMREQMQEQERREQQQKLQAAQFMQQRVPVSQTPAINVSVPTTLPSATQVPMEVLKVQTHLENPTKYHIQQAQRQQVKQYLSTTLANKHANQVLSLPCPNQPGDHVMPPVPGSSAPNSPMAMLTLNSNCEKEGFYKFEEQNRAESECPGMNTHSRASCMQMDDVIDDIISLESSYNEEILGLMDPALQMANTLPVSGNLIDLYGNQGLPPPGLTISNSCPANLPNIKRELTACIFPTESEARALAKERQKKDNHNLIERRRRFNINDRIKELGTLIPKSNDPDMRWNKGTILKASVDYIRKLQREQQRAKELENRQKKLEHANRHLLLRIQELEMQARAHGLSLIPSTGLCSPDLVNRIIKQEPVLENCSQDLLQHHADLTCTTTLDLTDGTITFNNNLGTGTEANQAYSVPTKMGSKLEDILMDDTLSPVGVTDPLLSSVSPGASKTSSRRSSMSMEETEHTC

[3] = reduction of Shn3 3'UTR-driven luciferase in osteoblasts – cell-based, Clone20 osteoblasts, firefly luciferase, cherry-picked, dose response (AID 624132); format: functional;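 further: firefly luciferase luminescence from reporter carrying the Shn3 3'UTR in osteoblasts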
[4] = NIH3T3 cell viability loss – ATP luminescence, mouse fibroblasts, counter-screen, dose response (AID 2010); format: functional, cell-based;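 further: cells exposed to compound for about 90 hours before reading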
HEK293 [5] = experiment: cells; conditions: Homo sapiens
HeLa = experiment: Cytotoxicity counterscreen assay for transcriptional activators of heat shock protein 70 (Hsp70). [Related pubchem assays: 1203, 1252 ]; format: functional; conditions: Homo sapiens;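 further: cells exposed to compound for 16 hours before readout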
[6] = loss of viability in HepG2 cells – cell-based, CellTiter-Glo, cherry-picked, cytotoxicity control for Shn3 inhibitor project, dose response (AID 624134); format: functional
[7] = non-specific 3'UTR reporter inhibition in Clone20-Shn3RL – cell-based, Renilla luciferase, cherry-picked, counter-screen for Shn3 inhibitor project, dose response (AID 624133); format: functional
HEK293 [8] = experiment: cells; conditions: Homo sapiens; remark: listed apart in the source
[9] = Luminescence Cell-Based Dose Confirmation HTS to Identify Inhibitors of Platelet Dense Granule Release. [Related pubchem assays: 1663 (Primary HTS), 1678 (Summary of Project)]; format: functional
cells = format: functional, cell-based; conditions: HEK-CNG
Galanin receptor type 3 = Galanin receptor type 3 (Homo sapiens, UniProt O60755); experiment: Fluorescence-based cell-based primary high throughput dose response assay to identify antagonists of the Galanin Receptor 3 (GalR3).; format: functional
HEK293 [10] = experiment: Fluorescence-based counterscreen for potentiators or agonists of NPY-Y2: cell-based high-throughput dose response assay to identify inhibitors of cyclic nucleotide gated ion channel (CNGC) activity. In this assay, the parental HEK293 cell line transfected with a cyclic-nucleotide gated ion channel (CNGC)-based cAMP sensor is used to measure inhibition of isoproterenol-induced CNGC activity by test compound.; format: functional; conditions: Homo sapiens
[11] = Luminescence Cell-Based Dose Response HTS to Identify Activators of Luciferase Translation or Activity in H4 […] Cells. [Related pubchem assays: 1829 (Project Summary), 1814 (Primary HTS)]; format: functional
[12] = target: Luciferin 4-monooxygenase (Photinus pyralis, UniProt P08659); experiment: inhibition of purified Photinus pyralis luciferase – biochemical, luminescence, dose response (AID 1891)
[13] = target: Neuropeptide Y receptor type 1 (Homo sapiens, UniProt P25929); experiment: Fluorescence-based counterscreen for agonists of NPY-Y2: cell-based high-throughput dose response assay for agonists of NPY-Y1.; format: functional
H4 = experiment: Luminescence Cell-Based Dose Response HTS to Identify Activators of 5'UTR Stem-Loop Driven Prion Protein mRNA Translation in H4 Neuroglioblastoma Cells. [Related pubchem assays: 1829 (Project Summary), 1814 (Primary HTS)]; format: functional; conditions: Homo sapiens
[14] = target: Neuropeptide Y receptor type 2 (Homo sapiens, UniProt P49146); experiment: Fluorescence-based cell-based high-throughput dose response assay for agonists of NPY-Y2. [Related pubchem assays: 1703 (Screening assay (CNGC inhibitors).), 1359 (Screening assay (NPY-Y2 potentiators or agonists).), 1304 (Screening assay (NPY-Y1 potentiators or agonists).), 1710 (Screening assay (NPY-Y2 agonists).), 1791 (Summary AID.)]; format: functional
[15] = Luminescence Cell-Based Dose Confirmation HTS to Identify Activators of 5'UTR Stem-Loop Driven Alpha-Synuclein mRNA Translation in H4 Neuroglioblastoma Cells. [Related pubchem assays: 1829 (Project Summary), 1814 (Primary HTS)]; format: functional
Streptococcus = experiment: GAS UMAA2166 growth inhibition – luminescence, BacTiterGlo, counter-screen for streptokinase expression inhibitor project, dose response (AID 1915); format: functional, organism-based;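 further: potency for reduction of bacterial viability or growth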
[16] = Luminescence Cell-Based Dose Response to Identify Activators of Luciferase Translation or Activity in H4-C Neuroglioblastoma Cells. [Related pubchem assays: 1829 (Project Summary), 1814 (Primary HTS)]; format: functional
INS1 = experiment: INS-1E survival protection against cytokine death – cell-based, luminescence, retest, dose response (AID 449756); format: functional; conditions: Rattus norvegicus, INS1;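 further: cell death triggered by IL-1 beta plus TNF-alpha plus IFN-gamma mixture; protective hits raise ATP signal compared with cytokine alone wells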
NS3 = NS3 (Hepatitis C virus, UniProt A3EZJ3); experiment: PubChem AID 2173; parameters: species or system Hepacivirus hominis
[17] = Luminescence Cell-Based Dose Confirmation to Identify Activators of 5'UTR Stem-Loop Driven Alpha-Synuclein mRNA Translation in H4 Neuroglioblastoma Cells. [Related pubchem assays: 1829 (Project Summary), 1814 (Primary HTS)]; format: functional
Streptokinase A = target: T3, Streptokinase A (Streptococcus pyogenes serotype M1, UniProt P10520); experiment: viability-normalized secreted streptokinase activity reduction – plasminogen activation absorbance, OD405, dose response (AID 1914); format: functional, Streptococcus pyogenes M1 GAS;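 further: secreted streptokinase activity via plasminogen activation per viability signal from cell pellet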
T3 sequence (P10520 whole entry): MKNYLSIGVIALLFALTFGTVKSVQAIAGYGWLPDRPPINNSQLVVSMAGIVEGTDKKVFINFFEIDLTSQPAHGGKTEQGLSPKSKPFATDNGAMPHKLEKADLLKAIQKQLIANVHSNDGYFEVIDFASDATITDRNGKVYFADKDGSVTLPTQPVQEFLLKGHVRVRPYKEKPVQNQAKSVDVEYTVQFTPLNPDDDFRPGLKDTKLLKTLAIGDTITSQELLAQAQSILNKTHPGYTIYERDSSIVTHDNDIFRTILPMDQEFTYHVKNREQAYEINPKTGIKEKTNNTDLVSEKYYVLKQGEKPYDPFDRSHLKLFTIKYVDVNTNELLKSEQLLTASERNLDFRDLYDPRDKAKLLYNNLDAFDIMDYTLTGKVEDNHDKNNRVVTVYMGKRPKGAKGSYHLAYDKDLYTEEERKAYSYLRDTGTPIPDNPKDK

[18] = test system: Streptococcus sp. 'group A'; experiment: Streptococcus pyogenes SK(-)GAS viability under kanamycin – luminescence, BacTiterGlo, confirmation, counter-screen for streptokinase expression inhibitor project, dose response (AID 1900); format: functional, organism-based
[19] = Luminescence Cell-Based Dose Response to Identify Activators of 5'UTR Stem-Loop Driven Prion Protein mRNA Translation in H4-C Neuroglioblastoma Cells. [Related pubchem assays: 1829 (Project Summary), 1814 (Primary HTS)]; format: functional
Insulin-degrading enzyme = Insulin-degrading enzyme (Homo sapiens, UniProt P14735); experiment: Dose Response: Fluorescence polarization-based cell-based high throughput dose response assay for inhibitors of insulin-degrading enzyme (IDE). [Related pubchem assays: 434962 (Primary screen (IDE inhibitors in singlicate)), 449730 (Counterscreen (Cytotoxicity in triplicate)), 435028 (Confirmation (IDE inhibitors in triplicate)), 434984 (Summary …; format: functional
[20] = target: Induced myeloid leukemia cell differentiation protein Mcl-1 (Homo sapiens, UniProt Q07820); format: functional
Genome polyprotein = Genome polyprotein (Hepatitis C virus, UniProt Q2Q167); experiment: disruption of hepatitis C core self-association – biochemical, TR-FRET, dose response (AID 2159); parameters: species or system Hepacivirus hominis;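 further: blocks dimerization of HCV core protein measured by TR-FRET between tagged core106 pairs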
[21] = target: T4, Small ubiquitin-related modifier 1 (Homo sapiens, UniProt P63165); experiment: SUMO1 protein interaction blockers, potency – biochemical, fluorescence polarization, uHTS hits, dose response (AID 624382); format: functional; conditions: read-out: IC50_Mean
[22] = target: T4, Small ubiquitin-related modifier 1; experiment: SUMO1 protein-protein binding blockers, potency – biochemical, FRET, dose response (AID 624383); format: functional; conditions: read-out: IC50_Mean
[23] = Counterscreen for IDE inhibitors: Luminescence-based cell-based high throughput dose response assay to identify compounds that are cytotoxic to HEK cells. [Related pubchem assays: 434962 (Primary screen (IDE inhibitors in singlicate)), 449730 (Counterscreen (Cytotoxicity in triplicate)), 435028 (Confirmation (IDE inhibitors in triplicate)) …; format: functional; conditions: HEK293

T4 sequence (P63165 whole entry): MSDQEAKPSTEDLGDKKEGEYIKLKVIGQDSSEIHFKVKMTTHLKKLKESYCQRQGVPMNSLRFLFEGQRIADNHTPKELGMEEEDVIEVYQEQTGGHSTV
Chain of Luciferin 4-monooxygenase (P08659 whole entry): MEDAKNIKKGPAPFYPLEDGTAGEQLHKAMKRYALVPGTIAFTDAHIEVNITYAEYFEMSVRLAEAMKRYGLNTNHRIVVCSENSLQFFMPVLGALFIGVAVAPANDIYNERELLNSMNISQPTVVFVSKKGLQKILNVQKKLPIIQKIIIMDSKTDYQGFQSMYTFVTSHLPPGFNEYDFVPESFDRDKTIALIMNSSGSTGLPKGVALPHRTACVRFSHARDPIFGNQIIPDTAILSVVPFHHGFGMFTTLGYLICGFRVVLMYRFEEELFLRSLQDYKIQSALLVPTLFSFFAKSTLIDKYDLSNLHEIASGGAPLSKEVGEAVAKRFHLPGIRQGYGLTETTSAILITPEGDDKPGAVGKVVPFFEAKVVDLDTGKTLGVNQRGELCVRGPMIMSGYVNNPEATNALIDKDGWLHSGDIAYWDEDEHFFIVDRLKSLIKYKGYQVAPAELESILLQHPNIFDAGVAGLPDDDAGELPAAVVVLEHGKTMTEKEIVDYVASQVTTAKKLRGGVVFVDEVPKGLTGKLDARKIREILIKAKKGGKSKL
Chain of Insulin-degrading enzyme (P14735 whole entry): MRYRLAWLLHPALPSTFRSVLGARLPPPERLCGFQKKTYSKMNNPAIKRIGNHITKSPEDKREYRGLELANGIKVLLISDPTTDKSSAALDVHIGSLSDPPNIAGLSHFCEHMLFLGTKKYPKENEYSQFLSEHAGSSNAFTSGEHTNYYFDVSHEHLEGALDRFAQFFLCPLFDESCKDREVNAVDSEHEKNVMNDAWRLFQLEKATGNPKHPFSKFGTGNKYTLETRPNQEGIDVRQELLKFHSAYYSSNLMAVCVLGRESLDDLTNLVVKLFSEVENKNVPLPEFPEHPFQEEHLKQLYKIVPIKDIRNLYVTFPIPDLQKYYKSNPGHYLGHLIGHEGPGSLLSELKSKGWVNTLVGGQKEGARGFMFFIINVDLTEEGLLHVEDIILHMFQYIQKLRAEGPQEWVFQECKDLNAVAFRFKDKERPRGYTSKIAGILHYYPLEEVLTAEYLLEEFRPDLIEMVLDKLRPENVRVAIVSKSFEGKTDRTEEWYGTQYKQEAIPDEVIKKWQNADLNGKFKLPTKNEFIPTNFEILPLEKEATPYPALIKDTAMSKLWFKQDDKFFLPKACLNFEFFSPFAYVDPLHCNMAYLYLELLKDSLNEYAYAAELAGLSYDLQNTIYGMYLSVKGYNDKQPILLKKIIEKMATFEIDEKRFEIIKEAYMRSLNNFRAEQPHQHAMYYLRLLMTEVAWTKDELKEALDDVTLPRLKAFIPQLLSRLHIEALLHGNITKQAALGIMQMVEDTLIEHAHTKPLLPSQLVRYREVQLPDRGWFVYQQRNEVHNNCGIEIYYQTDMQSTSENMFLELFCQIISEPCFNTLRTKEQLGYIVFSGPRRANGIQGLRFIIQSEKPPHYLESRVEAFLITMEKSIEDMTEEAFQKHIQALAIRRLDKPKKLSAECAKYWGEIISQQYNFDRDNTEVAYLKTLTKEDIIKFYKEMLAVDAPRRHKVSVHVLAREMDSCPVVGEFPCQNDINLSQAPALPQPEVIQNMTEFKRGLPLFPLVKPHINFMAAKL
Chain of Induced myeloid leukemia cell differentiation protein Mcl-1 (Q07820 whole entry): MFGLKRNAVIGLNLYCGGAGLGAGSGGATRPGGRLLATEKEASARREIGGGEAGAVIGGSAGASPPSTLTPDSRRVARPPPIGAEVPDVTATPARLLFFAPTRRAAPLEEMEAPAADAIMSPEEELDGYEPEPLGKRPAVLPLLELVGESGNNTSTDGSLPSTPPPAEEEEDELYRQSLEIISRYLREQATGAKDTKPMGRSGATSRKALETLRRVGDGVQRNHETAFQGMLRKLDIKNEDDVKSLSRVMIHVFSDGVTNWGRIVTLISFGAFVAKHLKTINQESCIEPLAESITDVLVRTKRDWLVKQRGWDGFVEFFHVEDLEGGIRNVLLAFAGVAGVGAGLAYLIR
Chain of Neuropeptide Y receptor type 2 (P49146 whole entry): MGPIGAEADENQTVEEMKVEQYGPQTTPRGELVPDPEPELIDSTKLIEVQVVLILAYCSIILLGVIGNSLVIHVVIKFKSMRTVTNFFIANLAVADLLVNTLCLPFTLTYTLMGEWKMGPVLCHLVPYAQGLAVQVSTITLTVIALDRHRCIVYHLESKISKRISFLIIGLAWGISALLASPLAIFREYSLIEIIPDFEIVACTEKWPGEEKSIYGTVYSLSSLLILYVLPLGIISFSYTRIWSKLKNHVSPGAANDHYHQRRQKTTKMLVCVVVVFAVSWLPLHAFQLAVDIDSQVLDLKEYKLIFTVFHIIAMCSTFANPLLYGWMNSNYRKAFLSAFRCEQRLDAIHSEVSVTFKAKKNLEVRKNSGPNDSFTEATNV
Chain of NS3 (A3EZJ3 whole entry): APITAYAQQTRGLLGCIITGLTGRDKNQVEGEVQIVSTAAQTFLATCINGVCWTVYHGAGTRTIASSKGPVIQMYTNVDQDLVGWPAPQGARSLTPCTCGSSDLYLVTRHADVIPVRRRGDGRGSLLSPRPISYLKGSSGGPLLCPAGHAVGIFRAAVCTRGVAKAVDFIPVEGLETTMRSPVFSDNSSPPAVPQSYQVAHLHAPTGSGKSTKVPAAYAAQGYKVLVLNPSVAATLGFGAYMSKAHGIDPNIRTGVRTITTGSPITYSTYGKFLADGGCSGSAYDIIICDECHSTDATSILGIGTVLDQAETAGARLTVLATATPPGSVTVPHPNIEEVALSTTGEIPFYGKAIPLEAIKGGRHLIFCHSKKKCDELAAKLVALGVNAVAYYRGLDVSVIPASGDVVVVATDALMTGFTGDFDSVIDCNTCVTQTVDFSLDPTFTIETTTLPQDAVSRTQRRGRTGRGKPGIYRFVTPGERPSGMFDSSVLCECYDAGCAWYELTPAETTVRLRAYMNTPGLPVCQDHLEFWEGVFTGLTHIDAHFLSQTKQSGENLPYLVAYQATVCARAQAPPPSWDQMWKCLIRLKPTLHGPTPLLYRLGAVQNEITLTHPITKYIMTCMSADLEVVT
Chain of Genome polyprotein (Q2Q167 whole entry): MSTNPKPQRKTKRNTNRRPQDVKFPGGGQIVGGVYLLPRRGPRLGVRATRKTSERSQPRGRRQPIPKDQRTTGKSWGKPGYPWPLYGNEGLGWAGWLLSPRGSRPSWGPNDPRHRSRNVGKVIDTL
Chain of Neuropeptide Y receptor type 1 (P25929 whole entry): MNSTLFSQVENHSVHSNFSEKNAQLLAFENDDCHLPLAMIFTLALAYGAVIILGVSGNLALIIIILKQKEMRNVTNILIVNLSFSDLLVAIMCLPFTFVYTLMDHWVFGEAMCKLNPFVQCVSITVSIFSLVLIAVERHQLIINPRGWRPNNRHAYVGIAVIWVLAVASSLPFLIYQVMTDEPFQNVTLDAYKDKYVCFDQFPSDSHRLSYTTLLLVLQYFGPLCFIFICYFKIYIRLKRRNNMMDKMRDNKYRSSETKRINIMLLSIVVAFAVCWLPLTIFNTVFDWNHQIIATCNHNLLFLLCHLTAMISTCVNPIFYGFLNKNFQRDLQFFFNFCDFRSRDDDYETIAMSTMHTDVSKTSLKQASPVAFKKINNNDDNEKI
Chain of Galanin receptor type 3 (O60755 whole entry): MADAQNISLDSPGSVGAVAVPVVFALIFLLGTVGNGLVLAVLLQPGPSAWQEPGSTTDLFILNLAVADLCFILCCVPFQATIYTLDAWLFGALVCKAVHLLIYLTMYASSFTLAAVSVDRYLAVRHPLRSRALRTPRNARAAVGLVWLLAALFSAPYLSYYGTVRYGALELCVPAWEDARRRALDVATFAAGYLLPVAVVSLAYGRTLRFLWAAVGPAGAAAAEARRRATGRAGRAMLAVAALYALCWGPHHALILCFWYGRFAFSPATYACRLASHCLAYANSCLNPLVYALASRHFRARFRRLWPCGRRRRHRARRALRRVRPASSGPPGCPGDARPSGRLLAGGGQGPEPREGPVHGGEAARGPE

For `O=C(CCCCCn1c(=S)[nH]c2ccccc2c1=O)N1CCN(c2ccncc2)CC1`, the IC50 (Estrogen receptor) was 0.03 µM (not active).
In the case of `CCCC(=O)N1CCN(c2ccc(NC(=O)c3ccc([N+](=O)[O-])o3)cc2Cl)CC1`, the EC50 [1] is reported as 2.36 µM (active), the AC50 [2] is reported as 7.65 µM (active) and the AC50 [3] is reported as 0.7 µM (active). The EC50 [4] was 2.96 µM (active), the EC50 (HEK293 [5]) was > 59.6 µM (inactive) and the CC50 (HeLa) was 4.19 µM (active). For the same molecule, the AC50 [6] was 36.6 µM (active), the AC50 [7] was 8.17 µM (active) and the EC50 (HEK293 [8]) was > 59.6 µM (inactive).
For `Nc1cc(-c2ccc(Br)cc2)nn1Cc1ccccc1`, the EC50 [9] was > 112 µM (not active), the EC50 (cells) was > 29.9 µM (inactive) and the IC50 (Galanin receptor type 3) was 3.55 µM (active). The EC50 (HEK293 [10]) was 9.3 µM (active), the EC50 [11] was 18 µM (active) and the EC50 [12] was > 112 µM (not active). For the same molecule, the EC50 [13] was 11.6 µM (not active), the EC50 (H4) was 13.1 µM (active) and the EC50 [14] was 13.1 µM (not active). The EC50 [15] was 7.99 µM (active).
With `NC(=S)N/N=C/c1ccc(C23CC4CC(CC(C4)C2)C3)cc1` the EC50 (Streptococcus) was > 50 µM (not active), the EC50 [16] was 0.415 µM (active) and the EC50 [1] was 0.387 µM (active). For the same molecule, the AC50 (INS1) was 5.3 µM (active), the IC50 (NS3) was 5.41 µM (active) and the EC50 [17] was 0.324 µM (active). For the same molecule, the EC50 [4] was 7.3 µM (active), the EC50 (Streptokinase A) was 13.4 µM (active) and the EC50 [11] was < 0.1 µM (active). The EC50 [18] was 2.4 µM (active), the EC50 [19] was 1.31 µM (active) and the EC50 (H4) was 96.8 µM (active). The EC50 [15] was < 0.1 µM (active).
For `COc1cccc(/C=N/Nc2[nH]cnc3c4cc(C)ccc4nc2-3)c1OC`, the IC50 (Insulin-degrading enzyme) was 0.571 µM (active), the IC50 [20] was 3.73 µM (active) and the IC50 (Genome polyprotein) was > 49.8 µM (not active). For the same molecule, the IC50 [21] was > 66.6 µM (inactive), the IC50 [22] was 2.38 µM (active) and the IC50 [23] was 24.9 µM (not active).
